Experimental data: patent US20230057309A1, “Inhibitors of DREAM Complex Assembly and/or Function For Use In Repairing DNA Damage” (priority 2021, published 2023)

Experiments:
[1] = tested on: DREAM target genes; experiment: RNA-seq of quiescent (serum-starved) U2OS cells treated with DYRK1A inhibitors; type: cell-based, human; settings: 24 h treatment, harmine 10 μM, INDY 25 μM; for number of the 67 DNA repair genes bound by DREAM that were upregulated: FDR<0.01
Description: (§1) U2OS were cultured in DMEM, high glucose GlutaMAX Supplement, Pyruvate (Thermo Fisher Scientific, 31966047) with 10% fetal bovine serum (FBS; Biochrom GmbH, S0615) and 1% Penicillin-Streptomycin (Thermo Fisher Scientific, 15140112). Cells were kept at 37° C. in a 5% CO2 incubator (Binder). Cell dissociation from the plates was performed with Accutase (Sigma, A6964). Cells were cultivated in FBS-free medium for 48 hours before genotoxic treatment were applied. […] Before the genotoxic treatment, cells were washed with FBS-free medium. For the UV treatment, medium was removed from the plates and cells were irradiated using 254 nm UV-C light Phillips UV6 bulbs. The MMS treatment was performed by adding MMS at 2 mM for 2 hours, followed by 3 washes with FBS-free medium. Quantification via FACS of cell death and apoptosis was performed 24 hours after genotoxic treatment.
For the qPCRs and RNA-seq on L1 worms, around 10.000 (qPCR) or 40.000 (RNA-seq) bleach-synchronized L1 worms in triplicates (qPCR) or quadruplicates (RNA-seq) per strain and condition were placed in seeded NGM plates and left at 20° C. for 3 hours. Posteriorly, they were irradiated with a 310 nm UV-B light Philips UV6 bulb in a Waldmann UV236B irradiation device or left unirradiated, and left for 6 more hours to allow the DNA damage related transcriptional changes to be taking place. After this, worms were collected, washed three times with M9 buffer, and the pellet was placed in a tube containing 1 ml of TRIzol™ (Invitrogen, 15596018) and 1 mm zirconia/silica beads (Biospec Products, 11079110z). To extract the RNA, worms were first disrupted with a Precellys24 (Bertin Instruments, P000669-PR240-A), and then the RNA isolation was performed by using the RNeasy Mini Kit (QIAGEN, 74106) following the manufacturer's specifications, except for the use of 1-bromo-3-chloropropane (Sigma, B9673) instead of chloroform. The RNA was quantified using NanoDrop™ 8000 (ThermoFisher, ND-8000-GL). […] Cells were disrupted with RLT buffer and homogenized with QIAshredder spin columns (QIAGEN, 79656).
The human RNA-seq data were processed with Salmon-1.1 (Patro et al., 2017) against a decoy-aware transcriptome (gencode.v37 transcripts and the GRCh38.primary_assembly genome) with the following parameter: --validateMappings -gcBias -seqBias. The output was imported and summarized to the gene-level with tximport (1.14.2) (Soneson, Love and Robinson, 2016) and differential gene analysis was done with edgeR (3.28.1) (Robinson, McCarthy and Smyth, 2009).

[2] = tested on: U2OS cells; experiment: UV-induced apoptosis in quiescent U2OS cells (Annexin V / 7-AAD FACS); type: cell-based, human; settings: UV 2 mJ·cm-2; 24 h after UV; harmine 10 μM, INDY 25 μM
Description: as §1
(§2) Collected cells were incubated in Annexin V Binding buffer (BioLegend, 422201) with Pacific Blue Annexin V (BioLegend, 640917) and 7-AAD (Thermo Fisher Scientific, 00699350) at 4° C. for 15 minutes. Cells were measured using a MACSQuant VYB (Miltenyi Biotec) and analyzed using FlowJo (BD).

[3] = tested on: U2OS cells; experiment: MMS-induced apoptosis in quiescent U2OS cells (Annexin V / 7-AAD FACS); type: cell-based, human; settings: MMS 2 mM for 2 hours; 24 h after treatment; harmine 10 μM, INDY 25 μM
Description: as §1, §2

[4] = tested on: U2OS cells; experiment: DNA repair kinetics in U2OS cells, γH2AX antibody staining after UV; type: cell-based, human; settings: quiescent cells, hours after UV; harmine 10 μM, INDY 25 μM
Description: Before the genotoxic treatment, cells are washed with FBS-free medium. For the UV treatment, medium is removed from the plates and cells are irradiated using 254 nm UV-C light Phillips UV6 bulbs. The MMS treatment is performed, e.g., by adding MMS at 2 mM for 2 hours, followed by 3 washes with FBS-free medium. Cells are fixed in a solution comprising PFA on HistoBond+ Adhesion Microscope Slides (Marienfeld, 0810461). To estimate the total amount of DNA damage per cell, the fixed cells are incubated overnight at 4° C. in PBS comprising anti-γH2AX antibody (Mouse anti-phospho-Histone H2A.X (Ser139), clone JBW301, Millipore, Cat #: 05-636), then washed 5 times 10 minutes in a suitable buffer at RT, prior to incubation for at least two hours with a secondary antibody. Finally, the slides are washed another 5 times 10 minutes in PBS-T and dried overnight. The next morning, slides are sealed with a cover slip.

[5] = biological target: DYRK1A kinase (Homo sapiens, UniProt Q13627); settings: cited from earlier work
[6] = tested on: Ercc1−/− mice; experiment: Photoreceptor cell loss in Ercc1 knockout mouse model of premature aging (TUNEL staining of retina); type: in vivo; settings: 10 mg/kg i.p. 3 times/week from P3, retina at P15
Source text: Mice were sacrificed at postnatal day P15 for retina tissue isolation. Tissues were embedded in optimal cutting temperature (OCT) compound, cryosectioned and stained using in situ cell detection kit (TUNEL staining) (11684817910, Roche).

[7] = tested on: Podocyte-specific Ercc1 knockout mice; experiment: Kidney function (proteinuria) in podocyte-specific Ercc1 knockout mice; type: in vivo, mouse; settings: 10 mg/kg/day for 4 weeks from 3 weeks of age; urine 8 and 11 days afterwards
Description: Proteinuria as endpoint for kidney dysfunction was assessed by Coomassie brilliant blue staining in urine 8 days (FIG. 7A) and 11 days (FIG. 7B) afterwards.
Proteinuria as endpoint for kidney dysfunction was assessed in urine 8 days and 11 days afterwards by assessing overall protein levels in urine samples via Coomassie brilliant blue staining after electrophoretic separation in a polyacrylamide gel.

[8] = biological target: T1, monoamine oxidase A (MAOA) (Homo sapiens, UniProt P21397); settings: cited from earlier work
T1 sequence (P21397 1-527): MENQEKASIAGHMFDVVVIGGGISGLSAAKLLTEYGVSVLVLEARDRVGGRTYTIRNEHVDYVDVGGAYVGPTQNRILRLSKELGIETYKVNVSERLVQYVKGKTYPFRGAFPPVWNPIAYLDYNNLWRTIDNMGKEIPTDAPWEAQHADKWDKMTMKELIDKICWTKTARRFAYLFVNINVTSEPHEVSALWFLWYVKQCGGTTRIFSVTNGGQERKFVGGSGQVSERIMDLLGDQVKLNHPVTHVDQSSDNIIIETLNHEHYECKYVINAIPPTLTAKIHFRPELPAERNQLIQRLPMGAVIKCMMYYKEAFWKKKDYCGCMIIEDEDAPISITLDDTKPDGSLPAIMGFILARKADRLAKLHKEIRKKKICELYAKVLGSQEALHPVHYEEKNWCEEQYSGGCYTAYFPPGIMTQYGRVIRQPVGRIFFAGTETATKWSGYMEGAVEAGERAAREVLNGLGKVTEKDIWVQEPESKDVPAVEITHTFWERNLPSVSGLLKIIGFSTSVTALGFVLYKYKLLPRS

Row | Structure (SMILES) | expression of DREAM target genes [1] | number of the 67 DNA repair genes bound by DREAM that were upregulated [1] | UV-induced apoptosis (annexin V positive + annexin V/7-AAD positive cells) vs mock treated cells [2] | resistance to MMS (apoptotic cells) [3] | γH2AX amount after UV irradiation vs control cells [4] | DYRK1A inhibition, selectivity [5] | apoptosis in photoreceptor cells (TUNEL) [6] | proteinuria (Coomassie staining of urine) [7] | MAOA inhibition [8]
1 | CCN1/C(=C/C(C)=O)Sc2ccc(O)cc21 [INDY, (1Z)-1-(3-ethyl-5-hydroxy-2(3H)-benzothiazoylidene)-2-propanone] | upregulation of DREAM target genes | 46 | highly significant reduction in UV-induced apoptosis | boosted the resistance to the alkylating agent MMS | significantly lower amounts of γH2AX | highly selective DYRK1A inhibitor |  |  | 
2 | COc1ccc2c(c1)[nH]c1c(C)nccc12 [harmine] | upregulation of DREAM target genes | 58 | highly significant reduction in UV-induced apoptosis | boosted the resistance to the alkylating agent MMS |  |  | prevented apoptosis in photoreceptor cells | mitigation of proteinuria | could also inhibit monoamine oxidase A (MAOA)
